Assay results as given in patent US7105550B2, “2,4-disubstituted thiazolyl derivatives” (priority 2000, dated 2006).

Tests used:
[1] = system: IL-12 production; assay: In vitro inhibition of IL-12 production in human blood; assay type: cell-based; settings: human whole blood, lipopolysaccharide 100 ng/ml, 24 hours
Experimental: (§1) Human Whole Blood Stimulation
(§2) Peripheral blood from healthy male donors was drawn into heparinized syringes (12.5 U heparin/ml). Blood samples were three-fold diluted in RMPI 1640 medium (Life Technologies, Belgium) supplemented with 2 mM L-glutamine, 100 U/ml penicillin and 100 μg/ml streptomycin, and 300 μl fractions were distributed in 24-well multidisc plates (Nunc, Roskilde, Denmark). Blood samples were preincubated (60 minutes at 37° C.) in a humidified 6% CO2-atmosphere with 100 μl of drug solvent (final concentration 0.02% dimethylsulfoxide in RPMI 1640) or with 100 μl of an appropriate dose of test compound before being stimulated by the addition of 100 μl of lipopolysaccharide at a final concentration of 100 ng/ml. After 24 hours, cell-free supernatant fluids were collected by centrifugation and stored at −20° C. until tested for the presence of IL-12.
(§3) Cytokine protein concentrations were determined by sandwich ELISA as described in Van Wauwe et al. (1996, Inflamm Res, 45, 357–363). Murine monoclonals used as capture antibodies to human cytokines were obtained from R&D Systems (Abingdon, United Kingdom) and code named MAB210 and MAB611 for TNF-α and IL-12 respectively. Butinylated goat polyclonal antibodies used to detect human cytokines were from R&D Systems (BAF210, BAF219). Cytokine levels were calculated from standard curves using recombinant cytokines supplied by R&D Systems.

[2] = system: TNF-α production; assay: In vitro inhibition of TNF-α production in human blood; assay type: cell-based; settings: human whole blood, lipopolysaccharide stimulation
Experimental: as §1
as §2, with “with 100 A1 of drug” for “with 100 μl of drug”, “ng/ml. After 6 hours, cell-free” for “ng/ml. After 24 hours, cell-free”, “presence of TNF-α.” for “presence of IL-12.”
as §3

Structure (SMILES) | % inhib. IL-12 (p40) ([1]; test dose 1 × 10^−6 M) [%] | % inhib. IL-12 (p40) ([1]; test dose 1 × 10^−7 M) [%] | % inhib. TNF-α ([2]; test dose 1 × 10^−6 M) [%] | % inhib. TNF-α ([2]; test dose 1 × 10^−7 M) [%]
Cl.c1ccc(Nc2nc(-c3c[nH]c4ccccc34)cs2)cc1 [Compound 9] | 49 | 53 | 37 | 39
Cc1ccc(Nc2nc(-c3cnc4ccccn34)cs2)cc1.Cl [Compound 39] | 64 | 71 | 53 | 59
Cl.Fc1cccc(-c2csc(Nc3cccc(C(F)(F)F)c3)n2)c1 [Compound 643] | 75 | 72 | 64 | 59
Br.FC(F)(F)c1cccc(Nc2nc(-c3cnc4ccccn34)cs2)c1 [Compound 81] | 65 | 67 | 51 | 47
Br.FC(F)(F)c1cccc(Nc2nc(-c3cccnc3)cs2)c1 [compound 101] | 62 | 65 | 54 | 53
FC(F)(F)c1cccc(Nc2nc(-c3cncnc3)cs2)c1 [compound 517] | 74 | 68 | 61 | 57
Cl.FC(F)(F)c1cccc(Nc2nc(-c3ccoc3)cs2)c1 [compound 518] | 62 | 59 | 38 | 44
Br.Cc1ccc(Nc2nc(-c3cnc4ncccn34)cs2)cc1Cl [compound 286] | 60 | 63 | 50 | 48
Br.FC(F)(F)c1cccc(Nc2nc(-c3cnc4ccccc4c3)cs2)c1.O [compound 100] | 53 | 51 | 43 | 41
Br.Cc1ncc(-c2csc(Nc3ccc(Cl)nc3)n2)n1C [Compound 527] | 61 | 66 | 37 | 43
Cl.c1ccn2c(-c3csc(Nc4ccc5ncsc5c4)n3)cnc2c1 [compound 587] | 79 | 75 | 56 | 56
Brc1cccc(Nc2nc(-c3cnc4ccccn34)cs2)c1 [Compound 466] | 95 | 86 | 57 | 49
Cc1ccc(Nc2nc(-c3cnc4ccccn34)cs2)cc1Cl.Cl [Compound 476] | 75 | 71 | 58 | 53
Br.COc1ccc(Nc2nc(-c3cnc4ccccn34)cs2)cc1 [Compound 74] | 70 | 67 | 56 | 48
Cl.c1ccn2c(-c3csc(Nc4ccc5c(c4)CCO5)n3)cnc2c1 [compound 579] | 72 | 75 | 49 | 50
COc1ccc(Nc2nc(-c3cnc4ccccn34)cs2)cn1 [compound 573] | 67 | 61 | 53 | 45
Cl.Clc1cccc(Nc2nc(-c3ncc4ccccn34)cs2)c1Cl [compound 410] | 53 | 58 | 39 | 43
Cc1ccc(Nc2nc(-c3cnc4ccccn34)cs2)cn1.Cl.Cl.O.O [compound 577] | 77 | 71 | 50 | 49
Cl.Clc1cccc(Nc2nc(-c3cnc4ccccn34)cs2)c1Cl.O [Compound 45] | 64 | 65 | 49 | 48
Cl.FC(F)(F)c1cccc(Nc2nc(-c3cnc4sccn34)cs2)c1 [compound 549] | 74 | 71 | 50 | 47
Cc1cccc(Nc2nc(-c3cnc4ccccn34)cs2)c1.Cl [Compound 31] | 66 | 68 | 55 | 49
Cl.Clc1cccc(Nc2nc(-c3cnc4sccn34)cs2)c1Cl [compound 551] | 71 | 71 | 44 | 40
Cl.FC(F)(F)c1cncc(Nc2nc(-c3cnc4ccccn34)cs2)c1 [compound 584] | 75 | 68 | 53 | 49
Brc1ccc(Nc2nc(-c3cnc4ccccn34)cs2)cc1.Cl [Compound 509] | 64 | 68 | 46 | 54
Br.Cc1cccc(Nc2nc(-c3cnc4cnccn34)cs2)c1.O [compound 115] | 75 | 67 | 58 | 53
Cl.Cl.Clc1cccc(Nc2nc(-c3c[nH]c4ncccc34)cs2)c1Cl [Compound 166] | 62 | 55 | 48 | 37
Br.Cc1cccc(Nc2nc(-c3cnn4ccccc34)cs2)c1 [compound 119] | 62 | 62 | 49 | 49
